Source: the Kinase Knowledgebase extract (Sharma et al. 2016)

Assays:
[1] = target: CDK2 (UniProt P24941); test: Enzyme Assay; conditions: for inhibition: concentration not given here
[2] = target: CDK2 (human) (UniProt P24941); test: Cell-Based Assay; conditions: sw480

SMILES | inhibition [1] [%] | IC50 [1] [µM] | other results
COc1cc[nH]c1/C=C1\C(=O)Nc2ccc3[nH]c(NCCCCc4ccccc4)nc3c21 | < 50 | – | –
COc1ccc(CCNc2nc3c4c(ccc3[nH]2)NC(=O)/C4=C\c2[nH]ccc2OC)cc1OC | < 50 | – | –
COc1cc[nH]c1/C=C1\C(=O)Nc2ccc3[nH]c(NC(C)c4ccccc4)nc3c21 (configuration not stated) | – | < 3.5 | –
Cc1nc[nH]c1/C=C1\C(=O)Nc2ccc([N+](=O)[O-])c(N)c21 | – | < 3.5 | –
COc1cc[nH]c1/C=C1\C(=O)Nc2ccc3nc(NCCCc4ccccc4)[nH]c3c21 | < 50 | – | –
COc1cc[nH]c1/C=C1\C(=O)Nc2ccc3[nH]c(Nc4cccc(C(C)=O)c4)nc3c21 | < 50 | – | –
COc1cc[nH]c1/C=C1\C(=O)Nc2ccc3[nH]c(C)nc3c21 | – | < 3.5 | IC50 [2]: < 1000 nM
COc1cc[nH]c1/C=C1\C(=O)Nc2ccc3[nH]c(CCc4ccc(O)cc4)nc3c21 | – | < 3.5 | –
COc1cc[nH]c1/C=C1\C(=O)Nc2ccc3[nH]c(Nc4ccc(N(C)C)cc4)nc3c21 | – | < 3.5 | –
COc1cc[nH]c1/C=C1\C(=O)Nc2ccc3[nH]c(C(O)c4ccccc4)nc3c21 (configuration not stated) | – | < 3.5 | –
COc1cc[nH]c1/C=C1\C(=O)Nc2ccc3nc[nH]c3c21 | – | < 3.5 | –
COc1cc[nH]c1/C=C1\C(=O)Nc2ccc3nc(Nc4ccc5c(c4)CCC5)[nH]c3c21 | < 50 | – | –
COc1ccc(Nc2nc3c4c(ccc3[nH]2)NC(=O)/C4=C\c2[nH]ccc2OC)cc1OC | < 50 | – | –
COc1cc[nH]c1/C=C1\C(=O)Nc2ccc3[nH]c(NCC4CCCO4)nc3c21 (configuration not stated) | – | < 3.5 | –
COc1ccc(Nc2nc3c4c(ccc3[nH]2)NC(=O)/C4=C\c2[nH]ccc2OC)cc1 | < 50 | – | –
Cc1nc[nH]c1/C=C1\C(=O)Nc2ccc([N+](=O)[O-])c(N=[N+]=[N-])c21 | – | < 3.5 | –

SMILES | inhibition [1] [%] | IC50 [1] [µM] | other results
COc1cc[nH]c1/C=C1\C(=O)Nc2ccc3nc(NCc4cccc5ccccc45)[nH]c3c21 | < 50 | – | –
COc1ccc(Cc2nc3c4c(ccc3[nH]2)NC(=O)/C4=C\c2[nH]ccc2OC)cc1 | – | < 3.5 | –
Cc1nc[nH]c1/C=C1\C(=O)Nc2ccc(N)c(N)c21 | – | < 3.5 | –
COc1cc[nH]c1/C=C1\C(=O)Nc2ccc3nc(NCc4ccc5c(c4)OCO5)[nH]c3c21 | < 50 | – | –
COc1cc[nH]c1/C=C1\C(=O)Nc2ccc3[nH]c(CCCc4ccccc4)nc3c21 | – | < 3.5 | –
O=C1Nc2ccc3[nH]c(-c4ccccc4)nc3c2/C1=C/c1ccc[nH]1 | – | < 3.5 | –
CCOC(=O)c1ccc(Nc2nc3c4c(ccc3[nH]2)NC(=O)/C4=C\c2[nH]ccc2OC)cc1 | < 50 | – | –
COc1ccccc1Nc1nc2c3c(ccc2[nH]1)NC(=O)/C3=C\c1[nH]ccc1OC | < 50 | – | –
COc1cc[nH]c1/C=C1\C(=O)Nc2ccc3[nH]c(-c4ccc(C(=O)O)cc4)nc3c21 | – | < 3.5 | –
COC(=O)c1ccc(Nc2nc3c4c(ccc3[nH]2)NC(=O)/C4=C\c2[nH]ccc2OC)cc1 | < 50 | – | –
COc1cc[nH]c1/C=C1\C(=O)Nc2ccc3[nH]c(-c4ccccc4)nc3c21 | – | < 3.5 | –
COc1cc[nH]c1/C=C1\C(=O)Nc2ccc3[nH]c(-c4ccccc4O)nc3c21 | – | < 3.5 | –
Cc1nc[nH]c1/C=C1\C(=O)Nc2ccc([N+](=O)[O-])c(F)c21 | – | < 3.5 | –
Cc1nc[nH]c1/C=C1\C(=O)Nc2ccc3[nH]cnc3c21 | – | < 3.5 | –
COCCCNc1nc2c3c(ccc2[nH]1)NC(=O)/C3=C\c1[nH]ccc1OC | – | < 3.5 | –
